The subject of one assay is E. coli MG1655. The format is cell-based, Escherichia coli.
In the next assay the test system is HepG2 cells. Nature of the assay: HepG2 cells cultured on CYTODEX 3 microcarriers, energy sources. Type of assay: cell-based, human. As to conditions: for activity at 30 µM / activity at 100 µM / activity at 330 µM / activity at 1000 µM / activity at 3300 µM / activity at 10000 µM / activity at 15000 µM / activity at 20000 µM: Homo sapiens, HepG2, 68 h, read-out: Responses of HepG2 Cells Cultured on Microcarriers After 68 hours in Culture and a 4 hour Color Development Period. The procedure: In this Example, methods for testing adherent cells cultured in suspension, for their ability to use multiple carbon sources are described. HepG2 cells were cultured as described in Example 30.
HepG2 cells were harvested by trypsinization for 3 minutes in 0.25% trypsin-1 mM EDTA and resuspended in an equal volume of culture medium. A viable cell count was obtained by trypan blue exclusion and the appropriate volume of the cell suspension to have 2.7×10^6 cells/0.1 gm CYTODEX 3 (Sigma C3275) microcarrier beads was determined. Microcarrier beads had been previously prepared by 1) rehydration in calcium-magnesium free (CMF) DPBS for 3 hours, 2) autoclaving for 15 minutes, and 3) washing twice in MEM without serum. The cell suspension was added to the beads in a 50 mL tube, and the volume adjusted to 5 mL. Cells were allowed to attach for 1 hour in an atmosphere of 5% CO2, 90-100% humidity, and 37° C., with resuspension every 15 minutes. The microcarriers were transferred to a 100×15 mm Petri dish in a total volume of 20 mL. Cultures were maintained as stationary cultures until used for assay.
The thixotropic suspending agent, methylcellulose (1500 cps, Sigma M0555), was included in the medium to keep the microcarriers suspended so that they could be accurately pipetted. The methylcellulose was prepared by autoclaving in 20 mL tissue culture water for 30 minutes, then mixing by shaking for 1 hour. The initial concentration of methylcellulose was […]. The methylcellulose was then diluted 1:1 in 2× DME with or without glucose, then supplemented with 10% HI FBS; this yields a methylcellulose concentration of 1.36%. Beads were transferred to a 50 mL tube, allowed to settle and resuspended in DPBS. The washed beads were then resuspended in DME with 10% HI FBS and penicillin-streptomycin but without glucose, L-glutamine, sodium pyruvate, or phenol red. An equal volume of 1.36% methylcellulose was added and mixed by pipetting.
For the assay, 70 μL of DME with 10% HI FBS and penicillin-streptomycin but without glucose, L-glutamine, sodium pyruvate, or phenol red were added to each well, followed by 30 μL of the appropriate dilution of each test energy source. Stocks of 133 mM of each test chemical were prepared in tissue culture grade water, sterile filtered, and dilutions were prepared in a master plate so that, upon dilution into a regular 96-well MICROPLATE a total well volume of 200 μL, the final concentrations would be 0.033 to 20 mM. Negative control wells received 30 μL of tissue culture grade water. One hundred μL of beads were pipetted into each well. For each plate containing energy sources and cells, a second, control plate containing only energy sources was prepared. Plates were incubated at 5% CO2, 90-100% humidity, and 37° C. for 68 hours prior to addition of the MTS/MPMS colorometric reagent (10 μL/well). The color formed in each well 4-8 hours after addition of the colorimetric reagent, was measured with a plate reader at 490 nm with a reference wavelength of 650 nm. OD values from the control plate were subtracted from the OD values obtained with cells prior to normalizing the data to % negative control (cells without added energy source).

The next assay concerns ten strains of E. coli. The format is cell-based, Escherichia coli.

Where a SMILES comes first, the peptide text is derived from it.

With `C[C@H](N)C(=O)N[C@H](C(=O)O)[C@@H](C)O` [ala-thr] (H-Ala-Thr-OH), the “suitability as nitrogen source (growth, purple color)” value (shortened to “suitability as nitrogen source”) in the assay with E. coli MG1655 was “positive”.
`C[C@H](NC(=O)CN)C(=O)O` [gly-ala] (H-Gly-Ala-OH): in the assay on E. coli MG1655, the “suitability as nitrogen source” value is reported as “positive”.
For `Nc1ncnc2nc[nH]c12` [adenine], in the assay on E. coli MG1655, the “suitability as nitrogen source” value was “not suitable”.
On to `CSCC[C@H](N)C(=O)N[C@@H](C)C(=O)O` [met-ala] (H-Met-Ala-OH), for which the “suitability as nitrogen source” value in the assay on E. coli MG1655 is reported as “not suitable”.
Same read-out and setting: with `CC(N)=O` [acetamide] the entry was “not suitable”; with `CSCC[C@H](NC(=O)CN)C(=O)O` [gly-met], “positive”.
With `O=C(CO)[C@@H](O)[C@H](O)[C@H](O)CO` [fructose], the activity at 30 µM in the assay on HepG2 cells (Conc. 0.03 mM) stood at 97.1%. In addition, the activity at 100 µM in the assay on HepG2 cells (Conc. 0.10 mM) was found to be 108%. Besides, the activity at 330 µM in the assay with HepG2 cells (Conc. 0.33 mM) is 123%. The activity at 1000 µM in the assay with HepG2 cells (Conc. 1.00 mM) was 115%. For the same compound, the activity at 3300 µM with HepG2 cells (Conc. 3.3 mM) was 107%. Moreover, the activity at 10000 µM with HepG2 cells (Conc. 10 mM) worked out at 94.4%. For the same compound, in the assay on HepG2 cells (Conc. 15 mM), the activity at 15000 µM came to 72.1%. The activity at 20000 µM with HepG2 cells (Conc. 20 mM) came out at 50.3%.
On to `O=[N+]([O-])[O-].[K+]` [potassium nitrate], for which, in the assay with E. coli MG1655, the “suitability as nitrogen source” value is “not suitable”.
On to `O[C@H]1[C@H](O)[C@@H](O)[C@H](O)[C@@H](O)[C@H]1O` [myoinositol], for which the activity at 30 µM in the assay with HepG2 cells (Conc. 0.03 mM) worked out at 86.3%. The activity at 100 µM in the assay with HepG2 cells (Conc. 0.10 mM) is 110%. In addition, the activity at 330 µM with HepG2 cells (Conc. 0.33 mM) was determined as 113%. Moreover, the activity at 1000 µM in the assay on HepG2 cells (Conc. 1.00 mM) was found to be 99.8%. Besides, the activity at 3300 µM in the assay on HepG2 cells (Conc. 3.3 mM) turned out to be 108%. Further, the activity at 10000 µM with HepG2 cells (Conc. 10 mM) is 89%. The activity at 15000 µM with HepG2 cells (Conc. 15 mM) stood at 78.3%. Besides, in the assay on HepG2 cells (Conc. 20 mM), the activity at 20000 µM turned out to be 61.4%.
On to `O=c1[nH]c(=O)c2ncn([C@@H]3O[C@H](CO)[C@@H](O)[C@H]3O)c2[nH]1` [xanthosine], for which the “suitability as nitrogen source” value in the assay on E. coli MG1655 was “not suitable”.
As for `N[C@@H]1C(O)O[C@H](CO)[C@@H](O)[C@@H]1O` (stereo partly drawn) [D-mannosamine], the “suitability as nitrogen source” value in the assay on E. coli MG1655 is “weak positive”.
Same read-out and setting: to `N[C@H]1C(O)O[C@H](CO)[C@H](O)[C@@H]1O` (stereo partly drawn) [D(+)-galactosamine] belongs “weak positive”.
Take `CC(CC(=O)O)C(=O)O` (stereo not drawn) [methyl succinate]: the “Responses of HepG2 Cells Cultured on Microcarriers After 68 hours in Culture and a 4 hour Color Development Period” value with HepG2 cells (Conc. 0.03 mM) is 90.6 % of negative control; with HepG2 cells (Conc. 0.10 mM), 83.3 % of negative control; in the assay on HepG2 cells (Conc. 0.33 mM), 98.6 % of negative control; in the assay with HepG2 cells (Conc. 1.00 mM), 107.5 % of negative control; in the assay with HepG2 cells (Conc. 3.3 mM), 124.3 % of negative control; with HepG2 cells (Conc. 10 mM), 162.7 % of negative control. Also, the “Responses of HepG2 Cells Cultured on Microcarriers After 68 hours in Culture and a 4 hour Color Development Period” value was 181.5 % of negative control in the assay with HepG2 cells (Conc. 15 mM) and 112.4 % of negative control in the assay with HepG2 cells (Conc. 20 mM).
Turning to `N=C(N)NCCCCN` [agmatine], the “suitability as nitrogen source” value in the assay with E. coli MG1655 is given as “not suitable”.
Same read-out and setting: to `CC(C)C[C@H](N)C(=O)O` [L-leucine] belongs “not suitable”; to `CC(=O)N[C@H]1C(O)O[C@H](CO)[C@H](O)[C@@H]1O` (stereo partly drawn) [N-acetyl-D-galactosamine], “not suitable”.
Take `NC=O` [formamide]: the “suitability as nitrogen source” value in the assay with E. coli MG1655 was “not suitable”.
Same read-out and setting: with `Cc1c[nH]c(=O)[nH]c1=O` [thymine] the entry was “not suitable”.
The same measure, in the same setting: to `CCN` [ethylamine] belongs “not suitable”; to `CCCCCCC(N)C(=O)O` (racemic) [DL-α-amino-caprylic acid], “not suitable”.
On the same count and under the same terms, to `C[C@H](N)C(=O)N[C@@H](Cc1cnc[nH]1)C(=O)O` [ala-his] (H-Ala-His-OH) belongs “not suitable”; to `CC[C@H](C)[C@H](N)C(=O)O` [L-isoleucine], “not suitable”; to `NCCCCC(=O)O` [δ-amino-n-valeric acid], “positive”.
`CC(=O)NCC(=O)O` [N-acetyl-glycine]: the “suitability as nitrogen source” value with E. coli MG1655 is “not suitable”.
The same measure, in the same setting: with `CCCCN` [n-butylamine] the entry was “not suitable”; with `NCCCC[C@H](N)C(=O)O` [L-lysine], “not suitable”.
Still for that read-out and setting: to `NCCCCN` [putrescine] belongs “not suitable”; to `NCCCC[C@@H](N)C(=O)O` [D-lysine], “not suitable”; to `O=C(O)CNC(=O)c1ccccc1` [hippuric acid], “not suitable”.
On to `O=C(O)/C=C/c1c[nH]cn1` [urocanic acid], for which, in the assay on E. coli MG1655, the “suitability as nitrogen source” value is recorded as “not suitable”.
With `CCCC(N)C(=O)O` (stereo not drawn) [2-amino-valeric acid], the “suitability as nitrogen source” value with E. coli MG1655 is reported as “not suitable”.
Same read-out and setting: to `NCC(=O)O` [glycine] belongs “positive”; to `NC(=O)NCCC[C@H](N)C(=O)O` [L-citrulline], “not suitable”; to `CCCCCN` [n-amylamine], “not suitable”.
Same read-out and setting: to `O=c1[nH]c(=O)c2[nH]cnc2[nH]1` [xanthine] belongs “not suitable”.
On to `CCC(N)C(=O)O` (racemic) [DL-α-amino-n-butyric acid], for which, in the assay on E. coli MG1655, the “suitability as nitrogen source” value is “not suitable”.
Consider `OC[C@H]1O[C@@](CO)(O[C@H]2O[C@H](CO)[C@@H](O)[C@H](O)[C@H]2O)[C@@H](O)[C@@H]1O` [Sucrose], for which, in the assay on HepG2 cells (Conc. 0.03 mM), the activity at 30 µM is 90.2%. Moreover, the activity at 100 µM with HepG2 cells (Conc. 0.10 mM) stood at 109%. Moreover, the activity at 330 µM in the assay with HepG2 cells (Conc. 0.33 mM) amounted to 98.6%. In the assay with HepG2 cells (Conc. 1.00 mM), the activity at 1000 µM is 95.2%. Further, the activity at 3300 µM with HepG2 cells (Conc. 3.3 mM) is 94%. The activity at 10000 µM with HepG2 cells (Conc. 10 mM) came to 83.3%. In the assay with HepG2 cells (Conc. 15 mM), the activity at 15000 µM was 66.8%. Besides, the activity at 20000 µM in the assay with HepG2 cells (Conc. 20 mM) came to 59.5%. For the same compound, in the assay with ten strains of E. coli, the carbon source utilization entry is “+ and −”; the “carbon source utilization (text)” value is “three of the four strains were positive”.
Turning to `O=C[C@H](O)[C@@H](O)[C@@H](O)[C@H](O)CO` [galactose], in the assay with HepG2 cells (Conc. 0.03 mM), the activity at 30 µM turned out to be 97.1%. Besides, the activity at 100 µM with HepG2 cells (Conc. 0.10 mM) amounted to 111%. The activity at 330 µM with HepG2 cells (Conc. 0.33 mM) came to 121%. Further, in the assay on HepG2 cells (Conc. 1.00 mM), the activity at 1000 µM came to 109%. Further, the activity at 3300 µM in the assay with HepG2 cells (Conc. 3.3 mM) worked out at 117%. In addition, the activity at 10000 µM in the assay with HepG2 cells (Conc. 10 mM) was 94.4%. For the same compound, in the assay on HepG2 cells (Conc. 15 mM), the activity at 15000 µM was found to be 81%. In the assay on HepG2 cells (Conc. 20 mM), the activity at 20000 µM turned out to be 65.6%.
